{"source": "patent US12404489B2", "about": "“Establishing topographic organization in three-dimensional tissue culture” (MEMORIAL SLOAN-KETTERING CANCER CENTER, priority 2017, dated 2025)", "key": {"[1]": {"system": "SHH signaling activity in SHH-organoids", "test": "Drug treatment of SHH-organoids, NKX2.2 induction at day 6", "type": "cell-based, human", "conditions": "day 6 organoids", "protocol": "(§1) Day 20 organoids were fixed in 4% PFA overnight at 4° C. and washed three times with PBS the next day. After fixation, tissue was cryoprotected in 30% sucrose/PBS and sectioned at 30 mm on a cryostat (Leica 3050 S). Sections were blocked for 30 minutes in 10% FBS, 1% BSA, 0.3% triton in PBS, and incubated as floating section in primary antibody overnight. The next day, sections were washed with PBS and incubated as floating section in secondary antibody for 3 hours at room temperature. Day 6 organoids were fixed in 4% PFA for 2 hours at 4° C. and washed three times with PBS. After fixation, tissue was cryoprotected in 30% sucrose/PBS and sectioned at […] and mounted directly onto slides prior to immunofluorescence assays.\nOrganoid topography was quantified by first dividing each image into a grid of […] squares (day 20 analysis) or […] squares (day 6 analysis) that form a Cartesian coordinate grid. […] The origin of the grid was calculated for each image as the “center of mass” of the iSHH-organizer cells: CMx=S mixi/M and CMy=S miyi/M, where m=grey value intensity of iSHH cells for individual ROIs, x or y=coordinate, and M=total intensity for all ROIs, and the sum includes all x or y coordinates in the image. […] The linear distance from the origin to each ROI (sqrt((ROIx-CM^x)^2+(ROIy-CMy)^2)) was calculated. […]"}, "[2]": {"system": "SHH signaling in SHH organizer-containing organoids", "test": "Example 6.2: SHH organizer-containing organoids treated with cholesterol inhibitors (FIGS. 15-16)", "type": "cell-based, human", "conditions": "for SHH signaling (PAX6+ extent of organoid): FIG. 15; for long-range and short-range SHH signaling: FIG. 16", "protocol": "To evaluate the effect of statins on fetal development, in certain embodiments SHH organizer-containing organoids are treated with statins.\nFIG. 16 summarizes the effects of cholesterol inhibition on SHH organizer-containing organoids."}, "SHH-organoids [3]": {"system": "SHH-organoids"}, "[4]": {"system": "SHH signaling activity in SHH-organoids", "test": "Drug treatment of SHH-organoids, positional domains analysed at day 20", "type": "cell-based, human", "conditions": "day 20 SHH-organoids", "protocol": "as §1, with “After fixation, tissue was cryoprotected in 30% sucrose/PBS and sectioned at 30 mm on a cryostat (Leica 3050 S).” left out\nOrganoid topography was quantified by first dividing each image into a grid of […] squares (day 20 analysis) or […] squares (day 6 analysis) that form a Cartesian coordinate grid. Each square is a discrete region of interest (ROI) that is associated with an X and Y coordinate. The origin of the grid was calculated for each image as the “center of mass” of the iSHH-organizer cells: CMx=S mixi/M and CMy=S miyi/M, where m=grey value intensity of iSHH cells for individual ROIs, x or y=coordinate, and M=total intensity for all ROIs, and the sum includes all x or y coordinates in the image. Next, ROI's that were positive for expression of a given protein (e.g. PAX6) were defined by thresholding staining intensity and determining ROIs with positive immunoreactivity. The linear distance from the origin to each ROI (sqrt((ROIx-CM^x)^2+(ROIy-CMy)^2)) was calculated. The present study analyzed every sixth section for each regional marker per organoid (typically 2-5 sections/organoid, depending on organoid size), thus sampling the organoids in 150 μm intervals using uniform random sampling."}, "SHH-organoids [5]": {"system": "SHH-organoids", "test": "Drug treatment of SHH-organoids, organoid and organizer size at day 20"}, "SW480 cells": {"system": "SW480 cells", "conditions": "cited from earlier work"}, "[6]": {"conditions": "doxycycline 400 ng/ml, lovastatin 5 μM, AY9944 1.25 μM"}, "[7]": {"conditions": "lovastatin 5 μM, AY9944 1.25 μM, cyclopamine 1 μM"}}, "note": "“Also recorded” adds a separate entry of the source. Read-outs that look alike come from different tables or passages of the source.", "data": [{"smiles": "Clc1ccccc1CNCC1CCC(CNCc2ccccc2Cl)CC1", "note": "(centres unmarked) [AY9944]", "values": [{"measurement": "NKX2.2 induction", "setting": "[1]; all concentrations tested", "value": "strongly inhibited NKX2.2 induction at all concentrations tested; also recorded: strongly inhibits induction of NKX2.2"}, {"measurement": "SHH signaling (PAX6+ extent of organoid)", "setting": "[2]", "value": "largely blocked SHH signaling"}, {"measurement": "long-range and short-range SHH signaling", "setting": "[2]", "value": "block long-range SHH signaling, but not short range signaling"}, {"measurement": "overall organoid size / growth", "setting": "SHH-organoids [3]", "value": "impaired growth"}, {"measurement": "size of the organizer", "setting": "SHH-organoids [3]", "value": "did not reduce the size of the organizer itself"}, {"measurement": "SHH signaling activity (efficacy and range)", "setting": "[4]; doxycycline 400 ng/ml, drug day 0-10, lovastatin 5 μM, AY9944 1.25 μM, cyclopamine 1 μM", "value": "reduced the efficacy and range of SHH signaling activity; also recorded: strong reduction the range of SHH-signaling activity"}, {"measurement": "NKX2.2 induction", "setting": "[4]; [6]", "value": "largely blocked; also recorded: fail to induce NKX2.2"}, {"measurement": "NKX2.1 expression in or near the organizer", "setting": "[4]; [7]", "value": "retained diencephalic NKX2.1 expression; also recorded: only retain NKX2.1 expression in the immediate vicinity of the organizer; also recorded: retain NKX2.1 and OTX2 expression within the organizer"}]}, {"smiles": "CC[C@H](C)C(=O)O[C@H]1C[C@@H](C)C=C2C=C[C@H](C)[C@H](CC[C@@H]3C[C@@H](O)CC(=O)O3)[C@H]21", "note": "[Lovastatin]", "values": [{"measurement": "distance at which NKX2.2 is induced from the organizer", "setting": "[1]; lovastatin 2, 5, 20 μM", "value": "reduced the distance at which NKX2.2 is induced from the organizer in a dose-dependent manner; also recorded: dose-dependent reduction"}, {"measurement": "size of the organizer", "setting": "SHH-organoids [5]", "value": "did not reduce the size of the organizer itself"}, {"measurement": "overall organoid size / growth", "setting": "SHH-organoids [5]; drug day 0-10", "value": "impaired growth"}, {"measurement": "GSH2 expression domain", "setting": "[4]; doxycycline 400 ng/ml, lovastatin 5 μM", "value": "concomitant increase in GSH2 expression; also recorded: increase in the relative area of the GSH2 expression domain"}, {"measurement": "NKX2.2 induction", "setting": "[4]; [6]", "value": "partial block in NKX2.2 induction; also recorded: moderate reduction in NKX2.2 induction"}, {"measurement": "NKX2.1 expression in or near the organizer", "setting": "[4]; [7]", "value": "retained diencephalic NKX2.1 expression; also recorded: retain NKX2.1 and OTX2 expression within the organizer"}]}, {"smiles": "Oc1nc(-c2ccc(C(F)(F)F)cc2)nc2c1CSCC2", "note": "[XAV939]", "values": [{"measurement": "degradation of β-catenin", "setting": "SW480 cells", "value": "promotes the degradation of β-catenin"}, {"measurement": "protein levels of the axin-GSK3β complex", "setting": "SW480 cells", "value": "increases the protein levels of the axin-GSK3β complex"}]}, {"smiles": "CC1=C2C[C@H]3[C@@H](CC=C4C[C@@H](O)CC[C@@]43C)[C@@H]2CC[C@]12O[C@@H]1C[C@H](C)CN[C@H]1[C@H]2C", "note": "[cyclopamine]", "values": [{"measurement": "SHH signaling (PAX6+ extent of organoid)", "setting": "[2]", "value": "no SHH signaling"}, {"measurement": "long-range and short-range SHH signaling", "setting": "[2]", "value": "block all SHH signaling"}, {"measurement": "PAX6 expression", "setting": "[4]; doxycycline 400 ng/ml, cyclopamine 1 μM", "value": "nearly uniform for PAX6 expression; also recorded: largely express PAX6"}, {"measurement": "NKX2.1 expression in or near the organizer", "setting": "[4]; [7]", "value": "not"}]}]}
